Data set [1] has as its target T1, Glutamate receptor ionotropic, NMDA 2B (Homo sapiens, UniProt Q05586+Q13224). The data set can be described thus: Displacement of [3H]ifenprodil from human GluN2B expressed in mouse L-M(TK-) cell membrane coexpressing GluN1a assessed as inhibition constant measured after 120 mins by competitive binding assay. Format: cell membranes. Background: In a radioligand displacement assay an active substance lowers the binding of a labelled ligand.

Data set [2] concerns the target Glutamate NMDA receptor; GRIN1/GRIN2B (Homo sapiens, UniProt Q05586+Q13224). The data set can be described thus: Antagonist activity at GluN1A/GluN2B receptor (unknown origin) expressed in Xenopus oocytes by voltage clamp method. Format: cell-based, Oocyte.
Data set [3] deals with Sigma non-opioid intracellular receptor 1 (Cavia porcellus, UniProt Q60492). The data set can be described thus: Displacement of [3H]-(+)-pentazocine from sigma1 receptor in guinea pig brain membrane assessed as inhibition constant measured after 120 mins by scintillation counting method. In kind it is cell membranes.
For data set [4], the target named is T2, Sigma intracellular receptor 2 (Rattus norvegicus, UniProt Q5U3Y7).
T2 sequence (Q5U3Y7 whole entry): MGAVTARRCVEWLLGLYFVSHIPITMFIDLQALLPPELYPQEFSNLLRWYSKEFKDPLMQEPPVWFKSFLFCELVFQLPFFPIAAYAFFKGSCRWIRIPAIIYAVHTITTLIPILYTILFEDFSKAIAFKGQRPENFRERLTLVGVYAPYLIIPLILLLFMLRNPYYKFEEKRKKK
Description: Displacement of [3H]di-o-tolylguanidine from sigma2 receptor in rat liver membrane assessed as inhibition constant measured after 120 mins by scintillation counting method. Format: cell membranes.

Data set [5] can be described thus: Lipophilicity, log D of compound at pH 7.4 by LC-MS analysis. Format: physicochemical. The following applies: buffer.
The nature of data set [6]: Drug metabolism in rat liver microsome assessed as formation of glucuronide metabolite (2S,3S,4S,5R,6S)-6-(4-((1R,2S)-3-(4-benzylpiperidin-1-yl)-1-hydroxy-2-methylpropyl)phenoxy)-3,4,5-trihydroxytetrahydro-2H-pyran-2-carboxylic acid in presence of NADPH/UDP-GA by LC-MS analysis. Format: ADME. The following applies: microsomes. A general note: Liver microsomes are a subcellular fraction often used to study metabolism.

Data set [7] addresses Glutamate receptor ionotropic, NMDA 2B (Homo sapiens) (UniProt Q13224). The data set can be described thus: Antagonist activity at GluN2B receptor (unknown origin) expressed in Xenopus oocytes coexpressing GluN1a at 1 uM at -70 mV holding potential in presence of (S)-glutamate/glycine by TEVC analysis. In kind it is cell-based. Particulars: Oocyte, filed as antagonist.
The target is the same in data set [8]. The data set can be described thus: Antagonist activity at GluN2B receptor (unknown origin) expressed in Xenopus oocytes coexpressing GluN1a at 10 uM at -70 mV holding potential in presence of (S)-glutamate/glycine by TEVC analysis relative to control. In kind it is cell-based. The following applies: Oocyte, filed as antagonist.
The nature of data set [9]: Metabolic stability in rat liver microsome assessed as intact compound incubated for 90 mins in presence of NADPH by LC-MS analysis. Format: ADME. Particulars: liver microsomes, read-out: Stability.
Data set [10] is described as follows: Drug metabolism in rat liver microsome assessed as formation of glucuronide metabolite (2S,3S,4S,5R,6R)-6-(5-((R)-3-(4-benzylpiperidin-1-yl)-1-hydroxypropyl)-1H-indazol-1-yl)-3,4,5-trihydroxytetrahydro-2H-pyran-2-carboxylic acid in presence of NADPH/UDP-GA by LC-MS analysis. Format: ADME. Particulars: microsomes.
Data set [11] concerns the target T1, Glutamate receptor ionotropic, NMDA 2B. The data set can be described thus: Antagonist activity at GluN2B receptor (unknown origin) expressed in Xenopus oocytes coexpressing GluN1a at -70 mV holding potential in presence of (S)-glutamate/glycine by TEVC analysis. Format: cell-based, Oocyte.
Data set [12] is described as follows: Drug metabolism in rat liver microsome assessed as formation of glucuronide metabolite (2S,3S,4S,5R,6S)-6-(4-(3-(4-(4-fluorobenzyl)piperidin-1-yl)prop-1-yn-1-yl)phenoxy)-3,4,5-trihydroxytetrahydro-2H-pyran-2-carboxylic acid in presence of NADPH/UDP-GA by LC-MS analysis. In kind it is ADME. Particulars: microsomes.
The nature of data set [13]: Drug metabolism in rat liver microsome assessed as formation of glucuronide metabolite (2S,3S,4S,5R,6R)-6-(5-((S)-3-(4-benzylpiperidin-1-yl)-1-hydroxypropyl)-1H-indazol-1-yl)-3,4,5-trihydroxytetrahydro-2H-pyran-2-carboxylic acid in presence of NADPH/UDP-GA by LC-MS analysis. In kind it is ADME. Particulars: microsomes.
Data set [14] is described as follows: Drug metabolism in rat liver microsome assessed as formation of glucuronide metabolite (2S,3S,4S,5R,6R)-6-(5-(3-(4-(4-fluorobenzyl)piperidin-1-yl)prop-1-yn-1-yl)-1H-indazol-1-yl)-3,4,5-trihydroxytetrahydro-2H-pyran-2-carboxylic acid in presence of NADPH/UDP-GA by LC-MS analysis. In kind it is ADME. Particulars: microsomes.

Consider 26 compounds from ChEMBL document CHEMBL5360654, “Indazole as a Phenol Bioisostere: Structure-Affinity Relationships of GluN2B-Selective NMDA Receptor Antagonists” (J Med Chem, 2023).

SMILES strings stand for the structures. Active and inactive are the calls of the source. No cut-off for these calls is given here. Bounds are passed on as bounds.

The Ki is a measure of affinity in units of concentration, obtained from inhibition or displacement. What is called IC50 is the concentration that inhibits the measured activity by half. As a reminder, the logD is lipophilicity at a set pH, counting ionised and neutral species. A word on the inhibition: it is how much of the control response was suppressed.

Glutamate receptor ionotropic, NMDA 2B (Homo sapiens), sequence (Q13224 27-1484 limits assumed): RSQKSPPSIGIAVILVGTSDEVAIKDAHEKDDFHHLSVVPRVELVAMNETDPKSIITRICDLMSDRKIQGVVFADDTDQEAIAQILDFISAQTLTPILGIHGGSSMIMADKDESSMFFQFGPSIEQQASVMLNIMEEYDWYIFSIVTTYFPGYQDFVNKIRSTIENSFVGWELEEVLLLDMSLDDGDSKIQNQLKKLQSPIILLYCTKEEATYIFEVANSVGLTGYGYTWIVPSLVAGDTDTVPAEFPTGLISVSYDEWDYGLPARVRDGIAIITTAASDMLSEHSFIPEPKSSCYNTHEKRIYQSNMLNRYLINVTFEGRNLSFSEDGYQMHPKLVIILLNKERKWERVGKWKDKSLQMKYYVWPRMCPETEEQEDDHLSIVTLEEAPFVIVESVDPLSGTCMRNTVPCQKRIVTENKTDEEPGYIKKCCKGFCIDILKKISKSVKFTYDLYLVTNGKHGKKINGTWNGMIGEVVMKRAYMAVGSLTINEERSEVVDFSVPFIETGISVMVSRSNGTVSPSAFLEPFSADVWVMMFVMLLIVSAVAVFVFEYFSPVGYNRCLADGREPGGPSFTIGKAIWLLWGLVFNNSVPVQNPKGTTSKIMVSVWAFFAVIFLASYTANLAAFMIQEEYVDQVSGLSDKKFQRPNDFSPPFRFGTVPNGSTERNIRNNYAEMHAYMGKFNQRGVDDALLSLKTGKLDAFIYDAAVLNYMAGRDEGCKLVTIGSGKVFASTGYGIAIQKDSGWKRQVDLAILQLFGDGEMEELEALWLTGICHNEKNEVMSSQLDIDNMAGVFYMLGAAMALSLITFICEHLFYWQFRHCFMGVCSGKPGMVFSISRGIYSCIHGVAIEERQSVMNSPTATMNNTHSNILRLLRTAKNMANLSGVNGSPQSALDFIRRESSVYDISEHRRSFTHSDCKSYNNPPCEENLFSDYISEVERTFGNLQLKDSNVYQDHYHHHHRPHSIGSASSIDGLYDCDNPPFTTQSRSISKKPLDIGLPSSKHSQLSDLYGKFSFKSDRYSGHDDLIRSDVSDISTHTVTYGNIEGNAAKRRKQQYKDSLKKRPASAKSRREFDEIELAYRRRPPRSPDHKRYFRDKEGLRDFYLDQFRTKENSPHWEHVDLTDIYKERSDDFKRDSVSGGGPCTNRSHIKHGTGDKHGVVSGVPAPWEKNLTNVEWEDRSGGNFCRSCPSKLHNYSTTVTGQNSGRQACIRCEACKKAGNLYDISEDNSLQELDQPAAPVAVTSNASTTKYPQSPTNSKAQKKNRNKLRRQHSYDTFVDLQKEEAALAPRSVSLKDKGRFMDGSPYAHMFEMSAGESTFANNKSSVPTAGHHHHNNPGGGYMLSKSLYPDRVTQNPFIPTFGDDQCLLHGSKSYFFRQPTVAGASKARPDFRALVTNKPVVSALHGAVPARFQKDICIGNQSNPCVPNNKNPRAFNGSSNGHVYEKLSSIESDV
T1 sequence (Q13224 whole entry, one chain of several): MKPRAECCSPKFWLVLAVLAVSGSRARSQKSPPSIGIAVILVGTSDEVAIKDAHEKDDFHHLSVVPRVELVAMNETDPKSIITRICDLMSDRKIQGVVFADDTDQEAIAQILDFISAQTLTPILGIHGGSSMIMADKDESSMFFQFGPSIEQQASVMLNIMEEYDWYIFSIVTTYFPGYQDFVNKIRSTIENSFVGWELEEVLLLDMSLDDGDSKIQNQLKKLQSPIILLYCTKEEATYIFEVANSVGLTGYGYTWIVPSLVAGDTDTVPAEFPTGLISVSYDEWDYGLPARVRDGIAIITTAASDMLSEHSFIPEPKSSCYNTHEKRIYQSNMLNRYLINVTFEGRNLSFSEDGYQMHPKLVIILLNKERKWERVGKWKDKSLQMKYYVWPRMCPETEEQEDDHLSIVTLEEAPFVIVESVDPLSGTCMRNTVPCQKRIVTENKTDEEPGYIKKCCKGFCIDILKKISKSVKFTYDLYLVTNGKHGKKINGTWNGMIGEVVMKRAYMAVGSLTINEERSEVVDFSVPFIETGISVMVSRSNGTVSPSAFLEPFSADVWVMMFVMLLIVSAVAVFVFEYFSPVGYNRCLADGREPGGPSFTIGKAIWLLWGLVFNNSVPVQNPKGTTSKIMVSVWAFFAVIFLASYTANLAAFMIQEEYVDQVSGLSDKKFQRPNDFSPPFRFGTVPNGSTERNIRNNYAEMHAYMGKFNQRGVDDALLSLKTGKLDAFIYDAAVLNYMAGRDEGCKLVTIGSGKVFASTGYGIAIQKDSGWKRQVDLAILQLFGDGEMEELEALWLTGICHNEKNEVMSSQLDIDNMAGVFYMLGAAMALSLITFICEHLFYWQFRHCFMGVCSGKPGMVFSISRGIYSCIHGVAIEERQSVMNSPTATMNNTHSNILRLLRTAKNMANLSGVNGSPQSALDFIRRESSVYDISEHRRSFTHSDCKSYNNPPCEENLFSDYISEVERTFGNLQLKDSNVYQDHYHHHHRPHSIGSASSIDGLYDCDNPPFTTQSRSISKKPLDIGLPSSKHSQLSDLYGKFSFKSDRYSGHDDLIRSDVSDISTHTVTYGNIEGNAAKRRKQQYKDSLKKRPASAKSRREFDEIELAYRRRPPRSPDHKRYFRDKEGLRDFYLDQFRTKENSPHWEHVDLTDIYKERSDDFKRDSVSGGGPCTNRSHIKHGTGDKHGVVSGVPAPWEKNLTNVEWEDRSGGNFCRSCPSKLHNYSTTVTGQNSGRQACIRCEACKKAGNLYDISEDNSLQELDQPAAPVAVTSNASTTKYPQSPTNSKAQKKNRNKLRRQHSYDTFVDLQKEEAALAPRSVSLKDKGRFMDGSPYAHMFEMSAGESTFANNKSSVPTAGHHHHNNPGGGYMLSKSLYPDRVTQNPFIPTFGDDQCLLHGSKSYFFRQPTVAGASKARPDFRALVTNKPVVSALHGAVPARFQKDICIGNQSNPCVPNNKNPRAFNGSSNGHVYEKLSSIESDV
Sigma non-opioid intracellular receptor 1, sequence (Q60492 whole entry): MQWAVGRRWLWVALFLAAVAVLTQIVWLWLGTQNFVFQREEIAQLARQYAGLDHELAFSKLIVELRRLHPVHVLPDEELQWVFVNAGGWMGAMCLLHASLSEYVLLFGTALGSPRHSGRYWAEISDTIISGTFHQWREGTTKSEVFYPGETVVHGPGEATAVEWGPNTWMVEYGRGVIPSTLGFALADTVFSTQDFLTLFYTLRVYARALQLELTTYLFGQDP
Glutamate NMDA receptor; GRIN1/GRIN2B, sequence (Q13224 whole entry, other chains not shown): as the sequence (Q13224 whole entry, one chain of several) above

`C(#Cc1ccc2[nH]ncc2c1)CN1CCC(Cc2ccccc2)CC1`: the Ki in data set [1] came out at 11 nM; in data set [3], 26 nM; in data set [4] it was 11 nM. This compound gave an IC50 in data set [2] of 380 nM. The compound also had a log distribution coefficient (logD) in data set [5] of 4.17.
For `OC(CCN1CCC(Cc2ccccc2F)CC1)c1ccc2[nH]ncc2c1` (stereo not given), the figures for the Ki in data set [1], in data set [3] and in [4] were 38 nM, 224 nM and 119 nM, respectively.
On to `C[C@@H](CN1CCC(Cc2ccccc2)CC1)[C@@H](O)c1ccc(O)cc1`, for which the Drug metabolism result in data set [6] is reported as “Metabolite_Detected”.
On to `C(=C\c1ccc2[nH]ncc2c1)/CN1CCC(Cc2ccccc2)CC1`, for which the Ki in data set [1] worked out at 6.6 nM; in data set [3] it was 2.7 nM; in data set [4], 10 nM.
`Cn1cc2cc(C#CCN3CCC(Cc4ccccc4)CC3)ccc2n1`: the inhibition constant Ki in data set [1] turned out to be 136 nM; in [3], 23 nM; in data set [4], 63 nM.
In the case of `O=C(CCN1CCC(Cc2ccccc2F)CC1)c1ccc2[nH]ncc2c1`, the Ki was found to be 20 nM in [1], 17 nM in data set [3] and 19 nM in data set [4].
Turning to `C(=C/c1ccc2[nH]ncc2c1)/CN1CCC(Cc2ccccc2)CC1`, the Ki in data set [1] came out at 120 nM; in [3], 562 nM; in [4] it was 135 nM.
As for `OC(CCN1CCC(Cc2ccc(F)cc2)CC1)c1ccc2[nH]ncc2c1` (stereo not given), the Ki in data set [1] was 32 nM; in [3], 12 nM; in data set [4], 18 nM. In addition, the logD in data set [5] was 2.02.
For `C(#Cc1ccc2cn[nH]c2c1)CN1CCC(Cc2ccccc2)CC1`, the results for the Ki in data set [1], in data set [3] and in data set [4] were 53 nM, 12 nM and 520 nM, respectively.
In the case of `Cn1ncc2cc(C#CCN3CCC(Cc4ccc(F)cc4)CC3)ccc21`, the inhibition constant (Ki) was 29 nM in data set [1], 40 nM in data set [3] and 63 nM in [4].
In the case of `OC(CCN1CCC(Cc2ccccc2)CC1)c1ccc2[nH]ncc2c1` (stereo not given), the inhibition entry in data set [7] was “Active”. Moreover, the results for the Ki in data set [1], in [3] and in [4] were 38 nM, 55 nM and 88 nM, respectively. This compound also showed a logD in data set [5] of 1.75. The inhibition in data set [8] was over 80%.
With `O[C@H](CCN1CCC(Cc2ccccc2)CC1)c1ccc2[nH]ncc2c1`, the Ki in data set [1] worked out at 265 nM; in data set [3], 58 nM; in [4], 241 nM. Also, the remaining at 1.5 h in data set [9] was about 67%. Moreover, the Drug metabolism result in data set [10] is reported as “Metabolite_Notdetected”. In addition, the 50% inhibitory concentration (IC50) in data set [11] turned out to be 62 nM.
Turning to `Oc1ccc(C#CCN2CCC(Cc3ccc(F)cc3)CC2)cc1`, the Ki in data set [1] amounted to 12 nM; in data set [3], 36 nM; in [4] it was 37 nM. Besides, the Drug metabolism entry in data set [12] is “Metabolite_Detected”. For the same compound, the logD in [5] came to 4.4.
For the compound `O=C(CCN1CCC(Cc2ccc(F)cc2)CC1)c1ccc2[nH]ncc2c1`, the Ki came to 56 nM in data set [1], 21 nM in [3] and 51 nM in data set [4].
`Cn1ncc2cc(C#CCN3CCC(Cc4ccccc4)CC3)ccc21`: the Ki is 38 nM in [1], 20 nM in [3] and 320 nM in data set [4].
In turn, `Oc1ccc(C#CCN2CCC(Cc3ccccc3)CC2)cc1` gave an IC50 in [2] of 100 nM.
As to `Fc1ccc(CC2CCN(CCCc3ccc4[nH]ncc4c3)CC2)cc1`, the Ki in data set [1] came out at 13 nM; in [3], 4.2 nM; in data set [4] it was 14 nM.
The corresponding values for `Cn1cc2cc(C#CCN3CCC(Cc4ccc(F)cc4)CC3)ccc2n1` are 182 nM, 32 nM and 151 nM.
Regarding `O[C@@H](CCN1CCC(Cc2ccccc2)CC1)c1ccc2[nH]ncc2c1`, the Ki in data set [1] amounted to 93 nM; in data set [3] it was 86 nM; in [4] it was 124 nM. Also, in data set [9], the remaining at 1.5 h was about 67%. For the same compound, the Drug metabolism result in [13] is reported as “Metabolite_Notdetected”. Also, the IC50 in data set [11] was found to be 72 nM.
As for `O=C(CCN1CCC(Cc2ccccc2)CC1)c1ccc2[nH]ncc2c1`, the inhibition result in data set [7] is “Active”. Further, the Ki is 18 nM in data set [1], 8.8 nM in data set [3] and 18 nM in data set [4]. The logD in data set [5] worked out at 2.64. Besides, in data set [8], the inhibition is over 80%.
On to `Fc1ccc(CC2CCN(C/C=C/c3ccc4[nH]ncc4c3)CC2)cc1`, for which the inhibitory constant (Ki) was 20 nM in data set [1], 10 nM in [3] and 37 nM in [4].
The corresponding values for `Fc1ccc(CC2CCN(CC#Cc3ccc4cn[nH]c4c3)CC2)cc1` are 35 nM, 26 nM and 850 nM.
Taken in the same sequence, the figures for `Fc1ccc(CC2CCN(C/C=C\c3ccc4[nH]ncc4c3)CC2)cc1` were 42 nM, 77 nM and 97 nM.
For `c1ccc(CC2CCN(CCCc3ccc4[nH]ncc4c3)CC2)cc1`, the Ki stood at 5.7 nM in data set [1], 7.5 nM in data set [3] and 12 nM in data set [4]. Besides, the logD in [5] is 2.63. Besides, the inhibition in [8] was over 80%.
As for `Fc1ccc(CC2CCN(CC#Cc3ccc4[nH]ncc4c3)CC2)cc1`, the Ki in data set [1] stood at 13 nM; in data set [3] it was 6.6 nM; in data set [4], 13 nM. In addition, the Drug metabolism result in data set [14] is on record as “Metabolite_Notdetected”. Moreover, the logD in data set [5] was 4.35.
Take `Fc1ccccc1CC1CCN(CC#Cc2ccc3[nH]ncc3c2)CC1`: the Ki amounted to 25 nM in data set [1], 57 nM in data set [3] and 31 nM in [4].
